Test results taken from patent US20190367520A1, “NEW COMPOUND HAVING FGFR INHIBITORY ACTIVITY AND PREPARATION AND APPLICATION THEREOF” (SHANGHAI INSTITUTE OF MATERIA MEDICA, CHINESE ACADEMY OF …, priority 2016, published 2019).

Columns and labels:
[1] = molecular target: FGFR4 kinase domain recombinant protein (Homo sapiens, UniProt P22455); test: FGFR4 enzyme activity at molecular level (ELISA, Poly(Glu,Tyr) 4:1 substrate)
Protocol: (§1) The plate was placed at 37° C. for 12-16 hours. The liquid in the well was discarded, the plate was washed, and the panel was washed three times with 200 μL/well of T-PBS (PBS containing 0.1% Tween-20) for 5 minutes each time.
(§2) 50 μL of ATP solution diluted with reaction buffer (50 mM HEPES pH 7.4, 50 mM MgCl2, 0.5 mM MnCl2, 0.2 mM Na3VO4, 1 mM DTT) was added to each well to a final concentration of 5 μM. The compound was diluted to a suitable concentration in DMSO, 1 μL/well or containing the corresponding concentration of DMSO (negative control well), and the FGFR1, FGFR4 kinase domain recombinant protein diluted in 49 μL of reaction buffer was added to initiate the reaction. Two control wells without ATP were required for each experiment. The reaction was carried out for 1 hour at 37° C. on a shaker (100 rpm). The plate was washed three times with T-PBS. Primary antibody, PY99 dilution was added at 100 μL/well and shaken at 37° C. for 0.5 hour. The plate was washed three times with T-PBS. Secondary antibody, horseradish peroxidase-labeled goat anti-mouse IgG dilution was added at 100 μL/well, and shaken at 37° C. for 0.5 hour. […] (Ultrasound was required for the dissolution of OPD, and the chromogenic solution needed to be prepared when used). 2 M H2SO4 was added at 50 μL/well to quench the reaction and a tunable wavelength microplate reader SPECTRA MAX 190 was used at a wavelength of 490 nm.
(§3) The inhibition rate of the sample was obtained by the following formula:
(§4) The IC50 value was obtained by four-parameter regression using the software attached to the microplate reader.

[2] = molecular target: FGFR1 kinase domain recombinant protein (Homo sapiens, UniProt P11362); test: FGFR1 enzyme activity at molecular level (ELISA, Poly(Glu,Tyr) 4:1 substrate)
Chain of FGFR1 kinase domain recombinant protein (P11362 478-767 limits assumed): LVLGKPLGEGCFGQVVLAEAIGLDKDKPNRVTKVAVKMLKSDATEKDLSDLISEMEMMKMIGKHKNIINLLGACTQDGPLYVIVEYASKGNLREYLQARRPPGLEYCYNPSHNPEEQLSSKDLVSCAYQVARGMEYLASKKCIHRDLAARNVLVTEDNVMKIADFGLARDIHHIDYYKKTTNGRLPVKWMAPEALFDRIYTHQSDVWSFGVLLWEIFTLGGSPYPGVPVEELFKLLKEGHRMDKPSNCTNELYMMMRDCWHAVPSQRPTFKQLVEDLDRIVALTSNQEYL
Protocol: as §1, §2, §3, §4

Chain of FGFR4 kinase domain recombinant protein (P22455 467-755 limits assumed): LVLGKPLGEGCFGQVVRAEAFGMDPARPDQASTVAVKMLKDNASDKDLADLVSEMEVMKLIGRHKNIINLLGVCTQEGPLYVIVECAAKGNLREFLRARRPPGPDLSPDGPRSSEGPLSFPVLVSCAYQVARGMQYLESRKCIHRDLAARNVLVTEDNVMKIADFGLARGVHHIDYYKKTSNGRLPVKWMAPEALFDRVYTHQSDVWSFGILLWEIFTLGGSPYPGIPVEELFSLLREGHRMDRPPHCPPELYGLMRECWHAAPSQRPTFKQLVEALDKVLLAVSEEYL

Row | Structure (SMILES) | IC50 [1] | IC50 [2] | FGFR inhibitory activity (in words) ([2]; FGFR1 and FGFR4 enzymes, conclusion from Table 2)
1 | C=CC(=O)N1CC[C@H](n2cc(-c3cnc4ccccc4c3)c3c(N)ncnc32)C1 [Control compound, (S)-1-(3-(4-amino-5-(quinolin-3-yl)-7H-pyrrole[2,3-d]pyrimidine-7-yl)pyrrolidine-1-yl)prop-2-en-1-one, reference compound] | 0.01 to 0.1 µM | > 0.1 µM | substantially no FGFR inhibitory activity
2 | CCN(C)C/C=C/C(=O)N1CCC(n2cc(-c3cc4cc(C)cc(OC)c4s3)c3c(N)ncnc32)C1 (stereo not drawn) [NO. 5, (E) 1-(3-(4-amino-5-(7-methoxy-5-methylbenzothiophene-2-yl)-7H-pyrrole[2,3-d]pyrimidine-7-yl)pyrrolidine-1-yl)-4-(ethyl(methy)amino)but-2-en-1-one] | 0.01 to 0.1 µM | < 0.01 µM | –
3 | COc1cc(C)cc2cc(-c3cn(C4CCN(C(=O)/C=C/CN(C)C(C)C)C4)c4ncnc(N)c34)sc12 (stereo not drawn) [NO. 6, (E)1-(3-(4-amino-5-(7-methoxy-5-methylbenzothiophene-2-yl)-7H-pyrrole[2,3-d]pyrimidine-7-yl)pyrrolidine-1-yl)-4-(isopropyl(methyl)amino)but-2-en-1-one] | 0.01 to 0.1 µM | < 0.01 µM | –
4 | COc1cc(C)cc2cc(-c3cn(C4CCN(C(=O)/C=C/CN5CCCC5)C4)c4ncnc(N)c34)sc12 (stereo not drawn) [NO. 7, (E)1-(3-(4-amino-5-(7-methoxy-5-methylbenzothiophene-2-yl)-7H-pyrrole[2,3-d]pyrimidine-7-yl)pyrrolidine-1-yl)-4-(pyrrolidine-1-yl)but-2-en-1-one] | 0.01 to 0.1 µM | < 0.01 µM | –
5 | COc1cc(C)cc2cc(-c3cn(C4CCN(C(=O)/C=C/CN5CCCCC5)C4)c4ncnc(N)c34)sc12 (stereo not drawn) [NO. 8, (E) 1-(3-(4-amino-5-(7-methoxy-5-methylbenzothiophene-2-yl)-7H-pyrrole[2,3-d]pyrimidine-7-yl)pyrrolidine-1-yl)-4-(piperidine-1-yl)but-2-en-1-one] | 0.01 to 0.1 µM | < 0.01 µM | –
6 | COc1cc(C)cc2cc(-c3cn(C4CCNC4)c4ncnc(N)c34)sc12 (stereo not drawn) [NO. 9, 5-(7-methoxy-5-methylbenzothiophene-2-yl)-7-(pyrrolidine-3-yl)-7H-pyrrole[2,3-d]pyrimidine-4-amine] | > 0.1 µM | 0.01 to 0.1 µM | –
7 | COc1cc(C)cc2cc(-c3cn(C4CCN(C(=O)OC(C)(C)C)C4)c4ncnc(N)c34)sc12 (stereo not drawn) [NO. 10, tert-butyl 3-(4-amino-5-(7-methoxy-5-methylbenzothiophene-2-yl)-7H-pyrrole[2,3-d]pyrimidine-7-yl) pyrrolidine-1-formate] | > 0.1 µM | 0.01 to 0.1 µM | –
8 | C=CC(=O)N1CC[C@@H](n2cc(-c3cc4cc(C)cc(OC)c4s3)c3c(N)ncnc32)C1 [NO. 11, (R)-1-(3-(4-amino-5-(7-methoxy-5-methylbenzothiophene-2-yl)-7H-pyrrole[2,3-d]pyrimidine-7-yl)pyrrolidine-1-yl)prop-2-en-1-one] | 0.01 to 0.1 µM | < 0.01 µM | –
9 | COc1cc(C)cc2cc(-c3cn(C4CN(C(=O)/C=C/CN5CCCC5)C4)c4ncnc(N)c34)sc12 [NO. 17] | 0.01 to 0.1 µM | < 0.01 µM | –
10 | C/C=C/C(=O)N1CCC(n2cc(-c3cc4cc(C)cc(OC)c4s3)c3c(N)ncnc32)C1 (stereo not drawn) [NO. 18, (E)-1-(3-(4-amino-5-(7-methoxy-5-methylbenzothiophene-2-yl)-7H-pyrrole[2,3-d]pyrimidine-7-yl)pyrrolidine-1-yl)but-2-en-1-one] | 0.01 to 0.1 µM | < 0.01 µM | –
11 | COc1cc(C)cc2cc(-c3cn(C4CN(C(=O)/C=C/CN(C)C)C4)c4ncnc(N)c34)sc12 [NO. 19, (E)-1-(3-(4-amino-5-(7-methoxy-5-methylbenzothiophene-2-yl)-7H-pyrrole[2,3-d]pyrimidine-7-yl)azetidin-1-yl)-4-(dimethylamino)but-2-en-1-one] | 0.01 to 0.1 µM | < 0.01 µM | –
12 | C=CC(=O)N1CCC(Cn2cc(-c3cc4cc(C)cc(OC)c4s3)c3c(N)ncnc32)C1 (stereo not drawn) [NO. 20, 1-(3-((4-amino-5-(7-methoxy-5-methylbenzothiophene-2-yl)-7H-pyrrole [2,3-d]pyrimidine-7-yl)methyl)pyrrolidine-1-yl)prop-2-en-1-one] | 0.01 to 0.1 µM | 0.01 to 0.1 µM | –

More lines, main results first:

Row | IC50 [1] | IC50 [2] | Structure (SMILES) | FGFR inhibitory activity (in words) ([2]; FGFR1 and FGFR4 enzymes, conclusion from Table 2)
13 | > 0.1 µM | – | C=CC(=O)N1CC(n2cc(-c3cc4cc(C)cc(OC)c4o3)c3c(N)ncnc32)C1 [NO. 23, 1-(3-(4-amino-5-(7-methoxy-5-methylbenzofuran-2-yl)-7H-pyrrole[2,3-d]pyrimidine-7-yl)azetidine-1-yl)prop-2-en-1-one] | –
14 | < 0.01 µM | < 0.01 µM | COc1cc(C)cc2cc(-c3cn(C4CCN(C(=O)C(C#N)=CC5CC5)C4)c4ncnc(N)c34)sc12 (stereo not drawn) [NO. 25, 2-(3-(4-amino-5-(7-methoxy-5-methylbenzothiophene-2-yl)-7H-pyrrole[2,3-d]pyrimidine-7-yl)pyrrolidine-1-carbonyl)-3-cyclopropyl acrylonitrile] | –
15 | < 0.01 µM | < 0.01 µM | C=C(CN1CCCC1)C(=O)N1CC(n2cc(-c3cc4cc(C)cc(OC)c4s3)c3c(N)ncnc32)C1 [NO. 44, 1-(3-(4-amino-5-(7-methoxy-5-methylbenzothiophene-2-yl)-7H-pyrrole[2,3-d]pyrimidine-7-yl)azetidine-1-yl)-2-(pyrrolidine-1-methylene)prop-2-en-1-one] | –
16 | < 0.01 µM | 0.01 to 0.1 µM | C=C(CN1CCOCC1)C(=O)N1CC[C@H](n2cc(-c3cc4cc(C)cc(OC)c4s3)c3c(N)ncnc32)C1 [NO. 45, (S) 1-(3-(4-amino-5-(7-methoxy-5-methylbenzothiophane-2-yl)-7H-pyrrole[2,3-d]pyrimidine-7-yl)pyrrolidine-1-yl)-2-(morpholinemethylene)prop-2-en-1-one] | –
17 | < 0.01 µM | 0.01 to 0.1 µM | C=C(CN(CC)CC)C(=O)N1CC[C@H](n2cc(-c3cc4cc(C)cc(OC)c4s3)c3c(N)ncnc32)C1 [NO. 46, (S) 1-(3-(4-amino-5-(7-methoxy-5-methylbenzothiophene-2-yl)-7H-pyrrole[2,3-d]pyrimidine-7-yl)pyrrolidine-1-yl)-2-((diethylamino)methylene)prop-2-en-1-one] | –
18 | < 0.01 µM | 0.01 to 0.1 µM | C=C(CN1CCCCC1)C(=O)N1CC[C@H](n2cc(-c3cc4cc(C)cc(OC)c4s3)c3c(N)ncnc32)C1 [NO. 48, (S) 1-(3-(4-amino-5-(7-methoxy-5-methylbenzothiophene-2-yl)-7H-pyrrole[2,3-d]pyrimidine-7-yl)pyrrolidine-1-yl)-2-(piperidine-1-methylene)prop-2-en-1-one] | –
19 | < 0.01 µM | 0.01 to 0.1 µM | C=C(CN1CCN(C)CC1)C(=O)N1CC[C@H](n2cc(-c3cc4cc(C)cc(OC)c4s3)c3c(N)ncnc32)C1 [NO. 49, (S) 1-(3-(4-amino-5-(7-methoxy-5-methylbenzothiophene-2-yl)-7H-pyrrole[2,3-d]pyrimidine-7-yl)pyrrolidine-1-yl)-2-((4-methylpiperazin-1-yl)-methylene)prop-2-en-1-one] | –
20 | > 0.1 µM | > 0.1 µM | C=CC(=O)NCCn1nc(-c2cc3cc(C)cc(OC)c3s2)c2c(N)ncnc21 [NO. 50, N-(2-(4-amino-3-(7-methoxy-5-methylbenzothiophen-2-yl)-1H-pyrazole[3,4-d]pyrimidine-1-yl)ethyl)acrylamide] | –
21 | < 0.01 µM | < 0.01 µM | C=C(CN(CC)CC)C(=O)N1CC(n2cc(-c3cc4cc(C)cc(OC)c4s3)c3c(N)ncnc32)C1 [NO. 51, 1-(3-(4-amino-5-(7-methoxy-5-methylbenzothiophene-2-yl)-7H-pyrrole[2,3-d]pyrimidine-7-yl)azetidine-1-yl)-2-((diethylamino)methylene)prop-2-en-1-one] | –
22 | < 0.01 µM | < 0.01 µM | C=C(CN1CCN(C)CC1)C(=O)N1CC(n2cc(-c3cc4cc(C)cc(OC)c4s3)c3c(N)ncnc32)C1 [NO. 52, 1-(3-(4-amino-5-(7-methoxy-5-methylbenzothiophene-2-yl)-7H-pyrrole[2,3-d]pyrimidine-7-yl)azetidine-1-yl)-2-((4-methylpiperazin-1-yl)methylene)prop-2-en-1-one] | –
23 | – | < 0.01 µM | C=CC(=O)N1CC[C@H](n2cc(-c3cc4cc(Cl)cc(OC)c4s3)c3c(N)ncnc32)C1 [NO. 59, (S)-1-(3-(4-amino-5-(5-chloro-7-methoxybenzothiophene-2-yl)-7H-pyrrole[2,3-d]pyrimidine-7-yl)pyrrolidine-1-yl)prop-2-en-1-one] | –
24 | – | < 0.01 µM | C=CC(=O)N1CC[C@H](n2cc(-c3cc4cc(F)cc(OC)c4s3)c3c(N)ncnc32)C1 [NO. 60, (S)-1-(3-(4-amino-5-(5-fluoro-7-methoxybenzothiophene-2-yl)-7H-pyrrole[2,3-d]pyrimidine-7-yl)pyrrolidine-1-yl)prop-2-en-1-one] | –
25 | – | < 0.01 µM | C=CC(=O)N1CC[C@H](n2cc(-c3cc4cc(Br)cc(OC)c4s3)c3c(N)ncnc32)C1 [NO. 62, (S)-1-(3-(4-amino-5-(5-bromo-7-methoxybenzothiophene-2-yl)-7H-pyrrole[2,3-d]pyrimidine-7-yl)pyrrolidine-1-yl)prop-2-en-1-one] | –
26 | – | > 0.1 µM | C=CC(=O)N1CCC(n2cc(-c3cc4cc(C)cc(OC)c4s3)c3c(N)nc(OCCN4CCOCC4)nc32)C1 (stereo not drawn) [NO. 66, 1-(3-(4-amino-5-(7-methoxy-5-methylbenzothiophene-2-yl)-2-(2-morpholineethoxy)-7H-pyrrole [2,3-d]pyrimidine-7-yl)pyrrolidine-1-yl)prop-2-en-1-one] | –
27 | – | < 0.01 µM | C=CC(=O)N1CC(n2cc(-c3cc4cc(C)cc(OC)c4s3)c3c(N)ncnc32)CC1CO (stereo not drawn) [NO. 70, 1-(4-(4-amino-5-(7-methoxy-5-methylbenzothiophene-2-yl)-7H-pyrrole[2,3-d]pyrimidine-7-yl)-2-(hydroxymethyl)pyrrolidine-1-yl)prop-2-en-1-one] | –
28 | – | < 0.01 µM | C=CC(=O)N1CCC(n2c(Cl)c(-c3cc4cc(C)cc(OC)c4s3)c3c(N)ncnc32)C1 (stereo not drawn) [NO. 71] | –
29 | – | < 0.01 µM | C=CC(=O)N1C[C@@H](n2nc(-c3cc4cc(C)cc(OC)c4s3)c3c(N)ncnc32)C[C@H]1C(=O)N(C)CCN(C)C [NO. 75] | –
